Measurements: patent US6989396B2, “Tropane alkaloid multidrug resistance inhibitors from Erythroxylum pervillei and use of the same” (The Board of Trustees of the University of Illinois, priority 2001, dated 2006)
Entries after “also recorded” stand apart in the source; their conditions may differ. Read-outs that look alike come from different tables or passages of the source.

Legend:
BC1, breast cancer = test: In vitro cytotoxicity, human tumor panel: BC1; assay type: cell-based; settings: Homo sapiens, read-out: ED50 BCI
Description: (§1) Cytotoxicity assay. Compounds 1–9 were evaluated for cytotoxic activity against a panel of human cancer cell lines, including KB-V1 in the presence and absence of VLB, according to an established protocol (68).

KB-V1, drug resistant KB = test: In vitro cytotoxicity, human tumor panel: KB-V1 with or without vinblastine; assay type: cell-based
Description: as §1

[1] = system: SKOV3 (ovarian adenocarcinoma); test: Cytotoxicity in ovarian adenocarcinoma SKOV3 (pGp -ve); assay type: cell-based; settings: Homo sapiens, SK-OV-3, read-out: IC50 SKOV3 (pGp − ve)
Description: as §1

[2] = system: SKVLB (ovarian adenocarcinoma, multidrug resistance); test: Multidrug resistance inhibition in SKVLB (pGp +ve); assay type: cell-based, human
KB-3 cells = test: Growth inhibitory potential (sulforhodamine B cell survival assay): KB-3; assay type: cell-based; settings: Homo sapiens, KB3, 72 h, read-out: IC50 KB-3
Description: One part of a natural product drug discovery program involves monitoring the potential of plant extracts to reverse multiple drug resistance. […] To investigate the potential of plant extracts or compounds to reverse multidrug-resistance, KB-V1 cells are treated with different concentrations of plant extracts or compounds in the presence (1 μg/ml) or absence of vinblastine.
Cytotoxic potential. The cytotoxic potential of test substances with KB-3, KB-V1 and KB-8-5 cells was determined as described previously (24). Briefly, various concentrations of test compounds (dissolved in 10 μl of 10% DMSO) were transferred to 96-well plates, and 190 μl aliquots of cell suspensions (5×10^4 cells/ml) were added to each well. The plates then were incubated for 72 hours at 37° C. (100% humidity with a 5% CO2 atmosphere in air), and 100 μl of cold 20% aqueous trichloroacetic acid were added to the growth medium in each well to fix the cells. The cultures were incubated at 4° C. for 30 minutes, washed, air-dried, stained with sulforhodamine B solution, and washed with 1% acetic acid. Finally, 200 μl of 10 mM Tris base were added to each well and the optical densities were determined at 515 nm utilizing an ELISA plate reader. In each case, a zero-day control was performed by adding an equivalent number of cells to several wells and incubating at 37° C. for 30 minutes, and processing as described above. Optical density values obtained with the zero-day control were subtracted, and cell survival, relative to control (solvent-treated) cultures, was calculated. The cytotoxic potential of the compounds with CEM and CEM/VLB100 cells was determined as described by Beck et al. (30). Cells were grown in 24-well plates at a density of 5–6×10^5 cells/ml. At 48 hours, the cell number was determined using a Coulter Counter, with a channelizer to distinguish cells from debris.

KB-V1 cells [3] = test: [3H]Vinblastine accumulation with intact cells; assay type: cell-based, human; settings: modulator 0–40 μM
Description: [^3H]Vinblastine accumulation with intact cells. Measurement of the accumulation of [^3H]vinblastine in cell monolayers was performed by the method of Fojo et al. (34) with some modifications. Studies were performed with 24-well plates. In preparing the cell monolayers, 2 ml of a cell suspension containing 2.5×10^5 cells per ml of incubation medium (DMEM with 10% calf serum) were added to each well. Control wells contained 2 ml of assay medium. […] Monolayers were washed three times with cold PBS, dried by inversion, and the cells were treated with trypsin. Cell suspensions were then transferred to vials containing 3 ml of scintillation solution (CytoScint™, ICN), mixed vigorously, and counted. The quantity of [^3H]vinblastine associated with incubations containing cells was corrected by subtracting the counts associated with incubations not containing cells.

MDR1 (Pgp) expression = test: Western blot analysis of MDR1 expression; assay type: cell-based, human; settings: KB-V1 and CEM/VLB100 cells, 72 hours; pervilleine A up to 45 μM, verapamil up to 44 μM
Description: Western blot analysis of MDR1 expression. […] Cells (7.5×10^5 cells as starting cell amount) were harvested using SDS lysis buffer [20 mM Tris-HCl (pH 6.8) containing 0.4% SDS (w/v), 5% glycerol (v/v), 0.006% bromophenol blue, 2% β-mer-captoethanol], and lysates were boiled for 10 minutes and stored at −20° C. Aliquots of lysates were used for protein determinations (bicinchoninic acid protein assay kit with BSA as standard), and equivalent amounts of protein were electrophoresed by SDS-PAGE with precast 7.5% Tris-glycine acrylamide gels (Novex, San Diego, Calif.). Following transfer to polyvinylidene difluoride membranes, nonspecific binding sites were blocked with 5% nonfat dry milk. Blotting was performed with rabbit polyclonal antibody mdr (Ab-1) (Oncogene Research Products, Inc.) and analyzed by streptavidin horseradish peroxidase-conjugated secondary antibody (Amersham Life Science) and visualized using a ECL western blotting detection system (Amersham Life Science).

KB-V1 cells [4] = test: In vivo hollow fiber test: KB-V1; design: species or system NCr nu/nu mice
Description: In vivo hollow fiber test. […] Confluent monolayers of KB-3, KB-V1 or KB-8-5 cells were harvested, collected by centrifugation and resuspended in conditioned medium at a concentration of 7.5×10^5 cells/ml.
Test compounds were administrated once daily by intraperitoneal injection from day 3–6 after implantation. Body weights were measure daily.
After incubating at 37° C. for 4 hours, the culture medium was aspirated and the samples were washed twice with normal saline containing 2.5% protamine sulfate solution by overnight incubation at 4° C. […] The formazan was extracted from each sample with DMSO (250 μl/well) for 4 hours at room temperature on a rotation platform.

[5] = summation of single-agent inhibitions

COc1cc(C=CC(=O)O[C@H]2[C@@H](O)[C@@H]3C[C@H](OC(=O)c4cc(OC)c(OC)c(OC)c4)C[C@H]2N3C)cc(OC)c1OC [Compound 3, 3α-(3,4,5-trimethoxybenzoyloxy)-6β-(3,4,5-trimethoxycinnamoyloxy)-7β-hydroxytropane]
IC50 (BC1, breast cancer): > 20 µg/mL
IC50 (KB-V1, drug resistant KB; Homo sapiens, KB-V1, drug-resistant KB assessed in the absence of vinblastine, read-out: ED50 KB-V1−): > 20 µg/mL
ED50 KB-V1+ (KB-V1, drug resistant KB; drug resistant KB assessed in presence of vinblastine (1 μg/mL)): 0.3 µg/mL
IC50 [1]: > 10 µM
IC50 ([2]; Homo sapiens, read-out: IC50 BSKVLB (pGp + ve)): > 10 µM
IC50 ([2]; read-out: IC50 SKVLB (pGp + ve), addition of adriamycin, Addition of 1 μm adriamycin): 0.65 µM
IC50 (KB-3 cells): 24 µM
fold increase of [3H]vinblastine accumulation (KB-V1 cells [3]): about 27 fold
effect on levels of Pgp (MDR1 protein expression) (MDR1 (Pgp) expression): did not alter expression levels; also recorded: did not significantly alter; also recorded: did not significantly affect
inhibition of cell growth when used in combination with vinblastine (KB-V1 cells [4]; KB-V1 or KB-8-5 cells in hollow fibers implanted into NCr nu/nu mice): up to 75%
Calculated inhibition (vinblastine + reversing agent as single agents), KB-V1, i.p. site (KB-V1 cells [4]; [5]): 2%
Calculated inhibition (vinblastine + reversing agent as single agents), KB-V1, s.c. site (KB-V1 cells [4]; [5]): 3.3%
Observed inhibition from coadministration with vinblastine, KB-V1, s.c. site (KB-V1 cells [4]; vinblastine 250 μg/kg + reversing agent 0.136 mmol/kg): 14.6 (P = 0.188) %
Observed inhibition from coadministration with vinblastine, KB-V1, i.p. site (KB-V1 cells [4]; vinblastine 250 μg/kg + reversing agent 0.136 mmol/kg, i.p. injection once daily days 3–6, listed as pervilleine A): 68.6 (P < 0.0001) %
Growth inhibition, single agent, KB-V1, s.c. site (KB-V1 cells [4]; vinblastine 250 μg/kg, reversing agents 0.136 mmol/kg, i.p. injection once daily days 3–6): 3.3%
Growth inhibition, single agent, KB-V1, i.p. site (KB-V1 cells [4]; vinblastine 250 μg/kg, reversing agents 0.136 mmol/kg, i.p. injection once daily days 3–6, fibers retrieved day 7, MTT): 1%
